Measured values published in patent US9840507B2, “5,6-dihydro-imidazo[1,2-a]pyrazin-8-ylamine derivatives useful as inhibitors of beta-secretase (BACE)” (Janssen Pharmaceutica, NV, priority 2010, dated 2017).

What was measured:
[1] = test system: Aβ42 produced and secreted into the medium of human neuroblastoma SKNBE2 cells; experiment: Cellular αlisa assay in SKNBE2 cells, Aβ42; type: cell-based; conditions: SKNBE2 cells expressing hAPP695, incubated for 18 hours; for IC50: Homo sapiens, SKNBE2, 18 h, read-out: Cellular αlisa assay in SKNBE2 cells Aβ42 pIC50 (converted)
Procedure: (§1) In two αlisa assays the levels of Aβtotal and Aβ42 produced and secreted into the medium of human neuroblastoma SKNBE2 cells are quantified. The assay is based on the human neuroblastoma SKNBE2 expressing the wild type Amyloid Precursor Protein (hAPP695). The compounds are diluted and added to these cells, incubated for 18 hours and then measurements of Aβ42 and Aβtotal are taken. Aβtotal and Aβ42 are measured by sandwich αlisa. αlisa is a sandwich assay using biotinylated antibody AbN/25 attached to streptavidin coated beads and antibody Ab4G8 or cAb42/26 conjugated acceptor beads for the detection of Aβtotal and Aβ42 respectively. In the presence of Aβtotal or Aβ42, the beads come into close proximity. The excitation of the Donor beads provokes the release of singlet oxygen molecules that triggers a cascade of energy transfer in the Acceptor beads, resulting in light emission. Light emission is measured after 1 hour incubation (excitation at […] and emission at 615 nm).
(§2) A best-fit curve is fitted by a minimum sum of squares method to the plot of % Controlmin versus compound concentration.
(§3) LC=Median of the low control values
(§4) =Low control: cells preincubated without compound, without biotinylated Ab in the αlisa
(§5) HC=Median of the High control values
(§6) =High Control: cells preincubated without compound % Effect=100−[(sample−LC)/(HC−LC)*100] % Control=(sample/HC)*100% % Controlmin=(sample−LC)/(HC−LC)*100

[2] = target: T1, recombinant BACE1 protein (Homo sapiens, UniProt P56817); experiment: Biochemical FRET based assay; conditions: recombinant BACE1 1 μg/ml, 10 μm substrate, 120 minutes, room temperature, pH 5.0; for IC50: read-out: Biochemical FRET based assay pIC50 (converted)
T1 construct: recombinant BACE1 protein in a final concentration of 1 μg/ml
From the text: This assay is a Fluorescence Resonance Energy Transfer Assay (FRET) based assay. The substrate for this assay is an APP derived 13 amino acids peptide that contains the ‘Swedish’ Lys-Met/Asn-Leu mutation of the amyloid precursor protein (APP) β-secretase cleavage site. This substrate also contains two fluorophores: (7-methoxycoumarin-4-yl) acetic acid (Mca) is a fluorescent donor with excitation wavelength at 320 nm and emission at 405 nm and 2,4-Dinitrophenyl (Dnp) is a proprietary quencher acceptor. […] Upon cleavage by BACE1, the fluorophore Mca is separated from the quenching group Dnp, restoring the full fluorescence yield of the donor. The increase in fluorescence is linearly related to the rate of proteolysis (Koike H et al. J. Biochem. 1999, 126, 235-242).
Briefly in a 384-well format recombinant BACE1 protein in a final concentration of 1 μg/ml is incubated for 120 minutes at room temperature with 10 μm substrate in incubation buffer (40 mM Citrate buffer pH 5.0, 0.04% PEG, 4% DMSO) in the absence or presence of compound. Next the amount of proteolysis is directly measured by fluorescence measurement at T=0 and T=120 (excitation at 320 nm and emission at 405 nm).
as §3
=Low control: Reaction without enzyme
as §5
=High Control: Reaction with enzyme % Effect=100−[(sample−LC)/(HC−LC)*100] % Control=(sample/HC)*100% % Controlmin=(sample−LC)/(HC−LC)*100

[3] = test system: Aβtotal produced and secreted into the medium of human neuroblastoma SKNBE2 cells; experiment: Cellular αlisa assay in SKNBE2 cells, Aβtotal; type: cell-based; conditions: SKNBE2 cells expressing hAPP695, incubated for 18 hours; for IC50: Homo sapiens, SKNBE2, 18 h, read-out: Cellular αlisa assay in SKNBE2 cells Aβtotal pIC50 (converted)
Procedure: as §1, §2, §3, §4, §5, §6

T1 sequence (P56817 46-501): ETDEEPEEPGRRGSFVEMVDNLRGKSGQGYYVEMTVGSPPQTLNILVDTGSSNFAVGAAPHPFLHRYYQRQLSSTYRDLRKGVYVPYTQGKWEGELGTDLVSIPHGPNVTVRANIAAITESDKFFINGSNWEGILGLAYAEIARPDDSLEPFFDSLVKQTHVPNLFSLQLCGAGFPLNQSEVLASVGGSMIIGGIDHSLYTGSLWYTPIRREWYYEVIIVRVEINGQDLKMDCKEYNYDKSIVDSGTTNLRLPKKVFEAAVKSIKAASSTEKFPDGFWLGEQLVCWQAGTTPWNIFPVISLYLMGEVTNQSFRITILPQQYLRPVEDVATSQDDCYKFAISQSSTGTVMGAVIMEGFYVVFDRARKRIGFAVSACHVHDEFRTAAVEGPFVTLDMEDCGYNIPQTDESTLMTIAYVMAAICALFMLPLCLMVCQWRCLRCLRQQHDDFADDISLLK

Compound | Cellular αlisa assay in SKNBE2 cells Aβ42 pIC50 [1] | IC50 [2] [nM] | Cellular αlisa assay in SKNBE2 cells Aβtotal pIC50 [3] | IC50 [1] [nM] | IC50 [3] [nM] | Biochemical FRET based assay pIC50 [2]
NC1=NC(c2cc(NC(=O)c3ccc(F)cn3)ccc2F)(C(F)F)Cn2ccnc21 (stereo not drawn) [Compound 27] | 6.05 | 589 | 6.11 | – | – | –
Cc1nc(C(=O)Nc2ccc(F)c([C@]3(C)Cn4cc(C(F)(F)F)nc4C(N)=N3)c2)co1 [Compound 38] | – | 100 | – | 42.7 | 41.7 | –
C[C@@]1(c2cc(NC(=O)c3ncc(C#N)cc3F)ccc2F)Cn2ccnc2C(N)=N1 [Compound 22] | – | 95.5 | – | 9.55 | 8.51 | –
C[C@@]1(c2cc(NC(=O)c3ccc(F)cn3)ccc2F)Cn2cc(Cl)nc2C(N)=N1 [Compound 53] | – | 61.7 | – | 36.3 | 35.5 | –
NC1=NC(c2cc(NC(=O)c3ncc(Cl)cc3F)ccc2F)(C(F)F)Cn2ccnc21 (stereo not drawn) [Compound 33] | – | 224 | – | 355 | 275 | –
COc1cnc(C(=O)Nc2ccc(F)c([C@]3(C)Cn4cc(C(F)(F)F)nc4C(N)=N3)c2)cn1 [Compound 26] | – | 234 | – | 85.1 | 72.4 | –
COc1cnc(C(=O)Nc2ccc(F)c([C@]3(C)Cn4c(Cl)cnc4C(N)=N3)c2)cn1 [Compound 57] | – | 66.1 | – | 13.5 | 14.8 | –
C[C@@]1(c2cc(NC(=O)c3ccsn3)ccc2F)Cn2cc(C(F)(F)F)nc2C(N)=N1 [Compound 40] | – | 229 | – | 87.1 | 91.2 | –
C[C@@]1(c2cc(NC(=O)c3ccn(C(F)F)n3)ccc2F)Cn2cc(C(F)F)nc2C(N)=N1 [Compound 51] | – | 162 | – | – | – | –
C[C@@]1(c2cc(NC(=O)c3ccn(C(F)F)n3)ccc2F)Cn2ccnc2C(N)=N1 [Compound 42] | – | 115 | – | 19.1 | 20 | –
CC1(c2cc(NC(=O)c3ccc(Cl)cn3)ccc2F)Cn2ccnc2C(N)=N1 (single isomer, unassigned) [Compound 8] | – | – | – | 12.3 | 11 | –
C[C@@]1(c2cc(NC(=O)c3ncc(Cl)cc3F)ccc2F)Cn2ccnc2C(N)=N1 [Compound 20] | – | 75.9 | – | 17.4 | 17.8 | –
CC1(c2cc(-c3cncc(Cl)c3)c(F)cc2F)Cn2ccnc2C(N)=N1 (single isomer, unassigned) [Compound 12] | – | 18600 | – | 2340 | 2190 | –
CC1(c2cc(-c3cncnc3)ccc2F)Cn2ccnc2C(N)=N1 (single isomer, unassigned) [Compound 7] | – | 20000 | – | 2750 | 2400 | –
C[C@@]1(c2cc(NC(=O)c3ccc(F)cn3)ccc2F)Cn2c(C#N)cnc2C(N)=N1 [Compound 66, (R)—N-{3-[8-amino-3-cyano-6-methyl-5,6-dihydroimidazo[1,2-a]pyrazin-6-yl]-4-fluorophenyl}-5-fluoropyridine-2-carboxamide] | – | 63.1 | – | – | – | –
COc1ccc(C(=O)Nc2ccc(F)c([C@]3(C)Cn4ccnc4C(N)=N3)c2)nc1 [Compound 17] | – | 107 | – | 17.4 | 16.6 | –
C[C@@]1(c2cccc(-c3cncnc3)c2)Cn2ccnc2C(N)=N1 [Compound 4, (R)-6-methyl-6-(3-pyrimidin-5-yl-phenyl)-5,6-dihydro-imidazo[1,2-a]pyrazin-8-ylamine] | – | – | – | 7760 | 7760 | >4.52
CC1(c2cc(-c3cncnc3)c(F)cc2F)Cn2ccnc2C(N)=N1 (single isomer, unassigned) [Compound 11] | – | 16600 | – | 2340 | 1950 | –
Cc1nc(C(=O)Nc2ccc(F)c([C@]3(C)Cn4cc(C(F)(F)F)nc4C(N)=N3)c2)c(C(F)(F)F)o1 [Compound 39] | – | 269 | – | 158 | 158 | –
C[C@@]1(c2cc(NC(=O)c3ccn(C(F)F)n3)ccc2F)Cn2cc(C(F)(F)F)nc2C(N)=N1 [Compound 37] | – | – | – | 15.8 | 16.6 | –
